Patent US20130072519A1, “2-PHENYL BENZOYLAMIDES” (priority 2010, published 2013)

What follows are compounds tested on Apolipoprotein B Secretion from HepG2 Cells (assay: Inhibition of Apolipoprotein B secretion from HepG2 cells (ELISA)). Details: HepG2 cells, 22-24 hours incubation, ApoB ELISA; Low/High IC50 columns give the 95% confidence interval.
Format: cell-based, human
Experimental: Inhibition of Apolipoprotein B Secretion from HepG2 Cells
To assess the inhibitory effect of the compounds of the invention on ApoB production, an endogenously ApoB producing cell line, HEPG2, was implemented in an in vitro ELISA assay. HEPG2 cells are plated at 25,000 per well (96-well plates) in media consisting of DMEM Low Glucose, 1% NEAA (non-essential amino acids), 10% FBS (heat inactivated), 1% L-Glutamine, and 1% Antimycotic-Antibiotic and incubated for 16-18 hours at 37° C. and 5% CO2. After the 16-18 hour incubation, a 12 point half-log serial of the inhibitor (1000 nM-0.003 nM) is prepared, and 1.5 ul of the serial dilution is added to HEPG2 cells, which have had their media decanted and replaced with 148 ul of fresh media, and the cells are incubated for 22-24 hours at 37° C. and 5% CO2. Two and a half hours before the 22-24 hour incubation period is completed, Nunc Maxisorp plates are coated with 100 ul of primary (coating) antibody (goat anti-apoB), diluting to a ratio of 1:1000 in 1% Carbonate-Bicarbonate Coating Buffer and incubated for at least 2 hours at room temperature before the primary antibody is decanted and the wells of the microplate are washed with 200 ul of washing buffer (1% PBS, 0.05% Tween20). Next, 200 ul of blocking buffer (1% PBS, 1:500 Western Block, 5 mg/ml BSA) is added to the wells of the microplate, and incubated for at least 30 mins. Following the 22-24 hours incubation period, cell plates are removed from the incubator, 20 ul of supernatant from each well is aspirated, added to a corresponding well in 96 well plate containing 140 ul of diluent (1:2-Blocking Buffer: Washing Buffer), and mixed. Then, 120 ul is aspirated from the dilutent-supernatant plate, added to the blocked Nunc Maxisorp 96 well plate, and placed at room temperature on a shaker to mix for at least 2 hours. The secondary (capture) antibody (mouse anti-human apoB) is prepared at a ratio of 1:4000, and the detection antibody (goat anti-mouse HRP conjugated antibody) at a ratio of 1:10,000. For each antibody, 100 ul is added to each well of the microplate and the microplate is incubated at room temperature for 2 hours, washing the microplates between each antibody addition. Colorimetric development is achieved by adding 50 ul of TMB reagent to each well, incubating for 5 mins at room temperature, then adding 50 ul of 2M Sulfuric Acid to each well. Absorbance at 450 nm is monitored in an Envision plate reader to measure the amount of ApoB formed.
Results reported as average IC50, low and high IC50 range (95% confidence interval).

Row | Compound | IC50 [nM]
1 | Cc1cccc(C(=O)Nc2ccc(CC(=O)OCC3(C(=O)OCc4ccccc4)c4ccccc4C(=O)N3C)cc2C(=O)N(C)C)c1-c1ccc(C(F)(F)F)cc1 (single isomer, unassigned; (+)) [Example 10, (+)-Benzyl 1-({2-[3-(Dimethylcarbamoyl)-4-({[6-methyl-4′-(trifluoromethyl)biphenyl-2-yl]carbonyl}amino)phenyl]acetoxy}methyl)-2-methyl-3-oxoisoindoline-1-carboxylate] | 14.1
2 | CCOC(=O)C1(COC(=O)Cc2ccc(NC(=O)c3ccccc3-c3ccc(C(F)(F)F)cc3)c(C(=O)N(C)C)c2)CCCc2ccccc21 (single isomer, unassigned; (+)) [Example 46, (+)-Ethyl 1-({2-[3-(Dimethylcarbamoyl)-4-({[4′-(trifluoromethyl)biphenyl-2-yl]carbonyl}amino)phenyl]acetoxy}methyl)-1,2,3,4-tetrahydronaphthalene-1-carboxylate] | 1.66
3 | Cc1cccc(C(=O)Nc2ccc(CC(=O)OCC3(C(=O)OCc4ccccc4)c4ccccc4C(=O)N3C)cc2C(=O)N(C)C)c1-c1ccc(C(F)(F)F)cc1 (single isomer, unassigned; (-)) [Example 9, (−)-Benzyl 1-({2-[3-(Dimethylcarbamoyl)-4-({[6-methyl-4′-(trifluoromethyl)biphenyl-2-yl]carbonyl}amino)phenyl]acetoxy}methyl)-2-methyl-3-oxoisoindoline-1-carboxylate] | 0.2
4 | CCOC(=O)C1(COC(=O)Cc2ccc(NC(=O)c3cccc(C)c3-c3ccc(C(F)(F)F)cc3)c(C(=O)N(C)C)c2)NC(=O)c2ccccc21 (centres unmarked) [Example 12] | 156
5 | CCOC(=O)C1(COC(=O)Cc2ccc(NC(=O)c3ccccc3-c3ccc(C(F)(F)F)cc3)c(C(=O)N(C)C)c2)c2ccccc2C(=O)N1CC (centres unmarked) [Example 19] | 0.107
6 | CCOC(=O)C1(COC(=O)Cc2ccc(NC(=O)c3ccccc3-c3ccc(C(F)(F)F)cc3)c(C(=O)N(C)C)c2)NC(=O)c2ccccc21 (centres unmarked) [Example 24] | 28
7 | CCOC(=O)C1(COC(=O)Cc2ccc(NC(=O)c3ccccc3-c3ccc(C(F)(F)F)cc3)c(C(=O)N(C)C)c2)NC(=O)c2ccccc21 (centres unmarked) [Example 25] | 297

The next lines start with the values.

Row | IC50 [nM] | Compound
8 | 29.4 | CCOC(=O)C1(COC(=O)Cc2ccc(NC(=O)c3cccc(C)c3-c3ccc(C(F)(F)F)cc3)c(C(=O)N(C)C)c2)NC(=O)c2ccccc21 (centres unmarked) [Example 11]
9 | 1.76 | CCOC(=O)C1(COC(=O)Cc2ccc(NC(=O)c3ccccc3-c3ccc(C(F)(F)F)cc3)c(C(=O)N(C)C)c2)c2ccccc2C(=O)N1CC (centres unmarked) [Example 20]
10 | 83.5 | CN(C)C(=O)c1cc(CC(=O)OCC2(C(=O)OCc3ccccc3)c3ccccc3C(=O)N2C)ccc1NC(=O)c1ccccc1-c1ccc(C(F)(F)F)cc1 (centres unmarked) [Example 22]
11 | 0.333 | CN(C)C(=O)c1cc(CC(=O)OCC2(C(=O)OCc3ccccc3)c3ccccc3C(=O)N2C)ccc1NC(=O)c1ccccc1-c1ccc(C(F)(F)F)cc1 (centres unmarked) [Example 23]

Same assay, conditions: Homo sapiens, HepG2, HepG2 cells, 22-24 hours incubation, ApoB ELISA; Low/High IC50 columns give the 95% confidence interval

Row | Compound | IC50 [nM]
12 | CCOC(=O)C1(COC(=O)Cc2ccc(NC(=O)c3ccccc3-c3ccc(C(F)(F)F)cc3)c(C(=O)N(C)C)c2)c2ccccc2C(=O)N1CC(F)(F)F (racemic) [Example 16] | 2.73
13 | CCOC(=O)C1(COC(=O)Cc2ccc(NC(=O)c3ccccc3-c3ccc(C(F)(F)F)cc3)c(C(=O)N(C)C)c2)CCc2ccccc21 (racemic) [Example 29] | 2.04
14 | CCOC(=O)C1(COC(=O)Cc2ccc(NC(=O)c3ccccc3-c3ccc(C(F)(F)F)cc3)c(C(=O)N(C)C)c2)CCCc2ccccc21 (racemic) [Example 41] | 0.701
15 | CCOC(=O)C1(COC(=O)Cc2ccc(NC(=O)c3ccccc3-c3ccc(C(F)(F)F)cc3)c(C(=O)N(C)C)c2)CCCc2cccnc21 (racemic) [Example 42] | 0.529
16 | CCN1C(=O)c2ccccc2C1(COC(=O)Cc1ccc(NC(=O)c2cccc(C)c2-c2ccc(C(F)(F)F)cc2)c(C(=O)N(C)C)c1)C(=O)OC (racemic) [Example 65, methyl 1-({2-[3-(dimethylcarbamoyl)-4-({[6-methyl-4′-(trifluoromethyl)biphenyl-2-yl]carbonyl}amino)phenyl]acetoxy}methyl)-2-ethyl-3-oxoisoindoline-1-carboxylate] | 0.38
17 | CCOC(=O)C1(COC(=O)Cc2ccc(NC(=O)c3ccccc3-c3ccc(C(F)(F)F)cc3)c(C(=O)N(C)C)c2)CCCc2ccccc21 (single isomer, unassigned; (-)) [Example 45, (−)-Ethyl 1-({2-[3-(Dimethylcarbamoyl)-4-({[4′-(trifluoromethyl)biphenyl-2-yl]carbonyl}amino)phenyl]acetoxy}methyl)-1,2,3,4-tetrahydronaphthalene-1-carboxylate] | 1.63
18 | CCOC(=O)[C@]1(COC(=O)Cc2ccc(NC(=O)c3ccccc3-c3ccc(C(F)(F)F)cc3)c(C(=O)N(C)C)c2)c2ccccc2C(=O)N1C [Example 1, Ethyl 1R-({2-[3-(dimethylcarbamoyl)-4-({[4′-(trifluoromethyl)biphenyl-2-yl]carbonyl}amino)phenyl]acetoxy}methyl)-2-methyl-3-oxoisoindoline-1-carboxylate] | 0.495
19 | CCOC(=O)C1(COC(=O)Cc2ccc(NC(=O)c3cccc(C)c3-c3ccc(C(C)(C)C)cc3)c(C(=O)N(C)C)c2)OC(=O)c2ccccc21 (centres unmarked) [Example 2] | 519
20 | CCOC(=O)C1(COC(=O)Cc2ccc(NC(=O)c3cccc(C)c3-c3ccc(C(F)(F)F)cc3)c(C(=O)N(C)C)c2)c2ccccc2C(=O)N1C (centres unmarked) [Example 7] | 15.6
21 | CCOC(=O)C1(COC(=O)Cc2ccc(NC(=O)c3ccccc3-c3ccc(C(F)(F)F)cc3)c(C(=O)N(C)C)c2)c2ccccc2C(=O)N1C (centres unmarked) [Example 13] | 7.18

Results, then the compound that gave them:

Row | IC50 [nM] | Compound
22 | 0.846 | CCOC(=O)C1(COC(=O)Cc2ccc(NC(=O)c3ccccc3-c3ccc(C(F)(F)F)cc3)c(C(=O)N(C)C)c2)c2ccccc2C(=O)N1C (racemic) [Example 4]
23 | 0.436 | Cc1cccc(C(=O)Nc2ccc(CC(=O)OCC3(C(=O)OCc4ccccc4)c4ccccc4C(=O)N3C)cc2C(=O)N(C)C)c1-c1ccc(C(F)(F)F)cc1 (racemic) [Example 8]
24 | 2.16 | CCOC(=O)C1(COC(=O)Cc2ccc(NC(=O)c3ccccc3-c3ccc(C(F)(F)F)cc3)c(C(=O)N(C)C)c2)c2ccccc2C(=O)N1C(C)C (racemic) [Example 14]
25 | 1.45 | CCOC(=O)C1(COC(=O)Cc2ccc(NC(=O)c3ccccc3-c3ccc(C(F)(F)F)cc3)c(C(=O)N(C)C)c2)c2ccccc2C(=O)N1CC (racemic) [Example 15]
26 | 16.5 | CCOC(=O)C1(COC(=O)Cc2ccc(NC(=O)c3ccccc3-c3ccc(C(F)(F)F)cc3)c(C(=O)N(C)C)c2)NC(=O)c2ccccc21 (racemic) [Example 21]
27 | 30.8 | CCOC(=O)C1(COC(=O)Cc2ccc(NC(=O)c3ccccc3-c3ccc(C(F)(F)F)cc3)c(C(=O)N(C)C)c2)c2ccccc2C(=O)N1Cc1ccc(OC)cc1OC (racemic) [Example 27]
28 | 3.17 | COC(=O)C1(COC(=O)Cc2ccc(NC(=O)c3ccccc3-c3ccc(C(F)(F)F)cc3)c(C(=O)N(C)C)c2)CCc2ccccc21 (racemic) [Example 28]
29 | 6.5 | CCOC(=O)C1(COC(=O)Cc2ccc(NC(=O)c3ccccc3-c3ccc(C(F)(F)F)cc3)c(C(=O)N(C)C)c2)OC(=O)c2ccccc21 (racemic) [Example 30]
30 | 8.47 | CCOC(=O)C1(COC(=O)Cc2ccc(NC(=O)c3ccccc3-c3ccc(C(F)(F)F)cc3)c(C(=O)N(C)C)c2)CCc2cccnc21 (racemic) [Example 37]
31 | 0.328 | CCOC(=O)C1(COC(=O)Cc2ccc(NC(=O)c3cccc(C)c3-c3ccc(C(F)(F)F)cc3)c(C(=O)N(C)C)c2)c2ncccc2C(=O)N1CC (racemic) [Example 44]
32 | 15.7 | CCOC(=O)C1(COC(=O)Cc2ccc(NC(=O)c3ccc(C(F)(F)F)cc3-c3ccc(C(F)(F)F)cc3)c(C(=O)N(C)C)c2)OC(=O)c2ccccc21 (centres unmarked) [Example 3]
33 | 4.77 | CCOC(=O)C1(COC(=O)Cc2ccc(NC(=O)c3ccccc3-c3ccc(C(F)(F)F)cc3)c(Cl)c2)c2ccccc2C(=O)N1C (centres unmarked) [Example 6]
34 | 3.07 | CCOC(=O)C1(COC(=O)Cc2ccc(NC(=O)c3ccccc3-c3ccc(C(F)(F)F)cc3)c(C)c2)c2ccccc2C(=O)N1C (centres unmarked) [Example 17]
35 | 23.9 | CCOC(=O)C1(COC(=O)Cc2ccc(NC(=O)c3ccccc3-c3ccc(C(F)(F)F)cc3)cc2)c2ccccc2C(=O)N1C (centres unmarked) [Example 18]
